Residues, ends and D or L forms follow the SMILES beside them. *: point of attachment. Cbz = O=C(OCc1ccccc1)*
System: WT MYXV
Assay type: cell-based, myxoma virus

CC(C)C[C@@H](C=O)NC(=O)[C@H](CC(C)C)NC(=O)[C@H](CC(C)C)NC(=O)OCc1ccccc1 [MG132, Z-Leu-Leu-Leu-al] (Cbz-Leu-Leu-Leu-aldehyde)
improved infection in SAMD9-null cells: did not affect improved infection

Actinomycin D
elevated luciferase activity resulting from infecting SAMD9-null cells: did not eliminate the elevated luciferase activity
overall luciferase activity compared with untreated corresponding infection: did reduce the overall luciferase activity

cytosine beta-D-arabinofuranoside [Cytosine arabinoside]
luciferase activity emitted from infection in both cell lines: did not affect luciferase activity

Reference: patent US12428626B2 (priority 2018, dated 2025)
